Data taken from patent publication US20040037856A1, “Use of compounds containing a thio-ether, sulphoxide or sulphone function as cosmetic anti-pollution agent” (priority 2000, published 2004).

Experiments:
human keratinocytes [1] = experiment: Ozone-induced lipid hydroperoxides (DCFH-DA fluorescence) in monolayer culture of human keratinocytes; assay type: cell-based; settings: for % fluorescence observed ± SEM in the presence of CMC, relative to the unprotected controls: 24 h pretreatment with CMC 0.5 mg/ml, CMC 1 mg/ml in PBS during exposure (b102 says 200 μM), controls = 100%, n=4
Method: Ozone has the capacity to oxidize cell constituents, especially generating carbonylated proteins and lipid hydroperoxides. Quantification of the lipid hydroperoxides is one means of measuring the oxidative stress induced by exposing skin tissue to this pollutant. A decrease in their content indicates a protective effect. The study was performed on a monolayer culture of human keratinocytes. The cells are inoculated on D-3 into 48-well dishes at a rate of 25 000 cells/cm^2 in 500 μl of culture medium. The incubations are performed at 37° C., 5% CO2 under a humid atmosphere. The cells were pretreated for 24 hours with CMC (0.5 mg/ml, half-maximal dose that is nontoxic to the cells, dissolved in the culture medium). Hydroperoxides constitute an intracellular stress marker. They are detected and quantified by means of a fluorescence technique (Lebel C. P., Ischiropoulos H. and Bondy S. C. (1992) Evaluation of the probe 2,7-dichlorofluorescin as an indicator of Reactive Oxygen Species formation and oxidative stress. Chem. Res. Toxicol.; 5: 227-231). In the presence of intracellular hydroperoxides and peroxidases, DCFH is oxidized to fluorescent 2,7-dichlorofluorescein (DCF). The cells, pretreated for 24 hours with CMC, are then washed with PBS buffer and placed in contact for 30 minutes with a solution of DCFH-DA (500 μl/well), prepared in the culture medium to a concentration of 320 μM. The cells are again rinsed with PBS buffer and then placed in contact with a CMC solution at a concentration of 1 mg/ml in PBS (100 μl/well). They are then exposed to ozone (1 ppm), under a humid atmosphere, in an incubator set at 37° C. The formation of fluorescent DCF (excitation filter at 485 nm and emission filter at 530 nm) resulting from the production of hydroperoxides is measured after different times of exposure to ozone: 0, 5, 10 and 20 minutes. Toxicity of ozone toward human keratinocytes in culture, in the absence and presence of S-carboxymethylcysteine at a concentration of 200 μM, as a function of the exposure time (n=4). For each time, the fluorescence values of the unprotected controls are set at 100%. The results in the presence of CMC are then expressed relative to this control value. […] This protection is at a maximum from 5 minutes of exposure onward (67.7% drop in induced stress). It is still significant after 20 minutes of exposure (53.5% drop in induced stress) relative to the unprotected controls.

human keratinocytes [2] = experiment: Toxicity of CMC to the keratinocytes (nontoxic dose); assay type: cell-based; settings: dissolved in the culture medium, 24 hours
Method: The study was performed on a monolayer culture of human keratinocytes. The cells are inoculated on D-3 into 48-well dishes at a rate of 25 000 cells/cm^2 in 500 μl of culture medium. The incubations are performed at 37° C., 5% CO2 under a humid atmosphere.
The cells were pretreated for 24 hours with CMC (0.5 mg/ml, half-maximal dose that is nontoxic to the cells, dissolved in the culture medium).

N[C@@H](CSCC(=O)O)C(=O)O [CMC, S-carboxymethylcysteine]
% fluorescence observed ± SEM in the presence of CMC, relative to the unprotected controls (human keratinocytes [1]; 5 min. of contact with ozone (1 ppm)): 32.4 ± 5.9%
drop in induced stress relative to the unprotected controls (human keratinocytes [1]; 5 minutes of exposure to ozone): 67.7%
% fluorescence observed ± SEM in the presence of CMC, relative to the unprotected controls (human keratinocytes [1]; 10 min. of contact with ozone (1 ppm)): 33.7 ± 5.0%
% fluorescence observed ± SEM in the presence of CMC, relative to the unprotected controls (human keratinocytes [1]; 20 min. of contact with ozone (1 ppm)): 46.5 ± 8.5%
drop in induced stress relative to the unprotected controls (human keratinocytes [1]; 20 minutes of exposure to ozone): 53.5%
protective effect against the effect induced by ozone (oxidative stress) (human keratinocytes [1]; human keratinocytes in vitro, ozone exposure): highly significant protective effect
half-maximal dose that is nontoxic to the cells (human keratinocytes [2]): 0.5 mg/mL
